Measurements as given in the supplement of paper PMC5908809.

Assays:
[1] = system: normal NK cells expanded with K562-aAPC; experiment: percent inhibition of viability; higher = more inhibition; details: 72 h, IL-2 2.5 ng/mL
Description: (§1)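 Drug sensitivity and resistance testing on K562-aAPC-expanded normal NK cells: 5 concentrations (10-fold steps over a 10,000-fold range), 72 h at 37 °C, viability by CellTiter-Glo normalised to DMSO and benzethonium chloride controls; DSS from the fitted curve.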

[2] = system: normal NK cells expanded with K562-aAPC; experiment: drug sensitivity score (DSS) (DSS units); higher = more sensitive; extreme values may be limits of the assay; details: 72 h; IL-2 2.5 ng/mL
Description: as §1

[3] = system: NK-YS (IL-2 2.5 ng/mL); experiment: as above; details: 72 h
[4] = system: YT (IL-2 2.5 ng/mL); experiment: as above; details: 72 h
[5] = system: DERL-7 (IL-2 2.5 ng/mL); experiment: as above; details: 72 h
[6] = system: normal primary NK cells, pool 2 (3 donors) (IL-2 2.5 ng/mL); experiment: as above; details: 72 h
[7] = system: normal primary NK cells, pool 1 (3 donors) (IL-2 2.5 ng/mL); experiment: as above; details: 72 h
[8] = system: KAI3 (IL-2 2.5 ng/mL); experiment: as above; details: 72 h
[9] = system: KHYG-1 (IL-2 2.5 ng/mL); experiment: as above; details: 72 h
[10] = system: IMC-1 (IL-2 20 ng/mL); experiment: as above; details: 72 h
[11] = system: normal primary NK cells, pool 1 (3 donors), resting (IL-2 0 ng/mL); experiment: as above; details: 72 h
[12] = system: NKL (IL-2 2.5 ng/mL); experiment: as above; details: 72 h
[13] = system: NK-92 (IL-2 2.5 ng/mL); experiment: as above; details: 72 h
[14] = system: SNK-6 (IL-2 2.5 ng/mL); experiment: as above; details: 72 h
[15] = system: normal primary NK cells, pool 3 (3 donors) (IL-2 2.5 ng/mL); experiment: as above; details: 72 h
[16] = system: NK-YS (IL-2 2.5 ng/mL); experiment: percent inhibition of viability; higher = more inhibition; details: 72 h
[17] = system: YT (IL-2 2.5 ng/mL); experiment: as above; details: 72 h
[18] = system: DERL-7 (IL-2 2.5 ng/mL); experiment: as above; details: 72 h
[19] = system: normal primary NK cells, pool 2 (3 donors) (IL-2 2.5 ng/mL); experiment: as above; details: 72 h
[20] = system: normal primary NK cells, pool 1 (3 donors) (IL-2 2.5 ng/mL); experiment: as above; details: 72 h
[21] = system: KAI3 (IL-2 2.5 ng/mL); experiment: as above; details: 72 h
[22] = system: KHYG-1 (IL-2 2.5 ng/mL); experiment: as above; details: 72 h
[23] = system: IMC-1 (IL-2 20 ng/mL); experiment: as above; details: 72 h
[24] = system: normal primary NK cells, pool 1 (3 donors), resting (IL-2 0 ng/mL); experiment: as above; details: 72 h
[25] = system: NKL (IL-2 2.5 ng/mL); experiment: as above; details: 72 h
[26] = system: NK-92 (IL-2 2.5 ng/mL); experiment: as above; details: 72 h
[27] = system: SNK-6 (IL-2 2.5 ng/mL); experiment: as above; details: 72 h
[28] = system: normal primary NK cells, pool 3 (3 donors) (IL-2 2.5 ng/mL); experiment: as above; details: 72 h

O=C(CCCCCCNC(=O)c1cnc(N(c2ccccc2)c2ccccc2)nc1)NO [Rocilinostat] (max concentration tested 10000 nM)
percent inhibition of viability [%]
Details | 1 nM | 10 nM | 100 nM | 1000 nM | 10000 nM
[1] | -3.43 | -1.33 | -2.48 | 24.8 | 99.9
[16] | 2.13 | -8.18 | 0.48 | 22.7 | 98.8
[17] | 0.06 | -7.38 | -4.05 | 18.3 | 101
[18] | -3.48 | -3.35 | -1.28 | 14.9 | 99.9
[19] | -7.32 | -6.43 | 5.49 | 23.4 | 94
[20] | 2.06 | 3.65 | 16.7 | 40.9 | 97.5
[21] | 0.64 | -3.56 | 4.44 | 55.4 | 96.6
[22] | 3.34 | 0.58 | -3.42 | 47.2 | 101
[23] | -4.44 | -8.29 | -0.57 | 8.19 | 100
[24] | 8.2 | -4.24 | 18.1 | 59.2 | 90.9
[25] | -10.5 | -16 | -8.09 | 62.8 | 104
[26] | -11.1 | -18.3 | 11.4 | 41 | 102
[27] | -5.08 | -17.2 | -1.48 | 31.4 | 97.9
[28] | -3.33 | -0.54 | 6.26 | 8.12 | 96.7

Details | drug sensitivity score
[2] | 9.32
[3] | 9.02
[4] | 8.53
[5] | 8.01
[6] | 8.8
[7] | 10.4
[8] | 12
[9] | 11.5
[10] | 6.83
[11] | 13.4
[12] | 12.8
[13] | 10.4
[14] | 9.9
[15] | 6.65

O=C1NC(=O)[C@@H](c2cn3c4c(cccc24)CCC3)[C@@H]1c1c[nH]c2ccccc12 [Tivantinib] (max concentration tested 1000 nM)
percent inhibition of viability [%]
Details | 0.1 nM | 1 nM | 10 nM | 100 nM | 1000 nM
[1] | 4.66 | 1 | 5.6 | 5.87 | 61
[16] | 0.78 | -2.63 | 4.33 | 31.1 | 73.6
[17] | -0.05 | -2.14 | 2.38 | 8.83 | 93.5
[18] | 1.35 | 4.31 | 5.17 | -5.73 | 98.9
[19] | -7.65 | -12.3 | -6.73 | 13.4 | 23.2
[20] | -0.92 | 0.64 | -7.52 | -8.4 | 6.83
[21] | -4.06 | 0.6 | 3.77 | 11.4 | 52.4
[22] | 0.89 | -0.35 | 5.11 | 11.5 | 99.1
[23] | -2.06 | -7.71 | 1.1 | 0.97 | 97.6
[24] | -0.8 | 10.8 | 3.09 | 6.28 | 8.64
[25] | -20.3 | -13.1 | -9.15 | -9.89 | 84.3
[26] | -9.63 | -0.01 | -3.88 | 39 | 94.7
[27] | 9.19 | 0.24 | 0.91 | 70.4 | 83.3
[28] | -12.8 | -3.79 | -11.9 | 5.81 | 17.4

Details | drug sensitivity score
[2] | 4.27
[3] | 7.74
[4] | 6.61
[5] | 5.07
[6] | 2.26
[7] | 0
[8] | 4.63
[9] | 7.4
[10] | 5.57
[11] | 0
[12] | 4.03
[13] | 10.4
[14] | 12.9
[15] | 1

CCC1(c2ccc(N)cc2)CCC(=O)NC1=O (stereo not given) [Aminoglutethimide] (max concentration tested 10000 nM)
percent inhibition of viability [%]
Details | 1 nM | 10 nM | 100 nM | 1000 nM | 10000 nM
[1] | 1.05 | -2.97 | -1 | -2.85 | 0.83
[16] | 4.81 | 6.87 | 2.26 | 7.56 | 4.69
[17] | 13.1 | 2.62 | 11.4 | 2.84 | 12.5
[18] | 6.92 | 1.97 | 7.28 | -2.32 | 7.58
[19] | 3.13 | 3.88 | 0.19 | 1.2 | 8.45
[20] | -5.3 | -8.94 | -8.74 | -4.93 | 1.17
[21] | 14 | 10.4 | 8.76 | 9.73 | 9.01
[22] | 16.4 | 0 | 11 | 1.44 | 15.2
[23] | 1.84 | 4.93 | 3.29 | 2.36 | 3.88
[24] | -3.93 | -9.4 | -1.78 | -7.06 | 21.1
[25] | 28.3 | 0.83 | 18.7 | -2.97 | 15.1
[26] | 7.96 | 0.54 | 12.4 | 0.81 | 11.1
[27] | 21.1 | 17.4 | 10.2 | -16 | -32.7
[28] | 4.12 | -2.09 | 1.89 | 3.88 | 6.3

Details | drug sensitivity score
[2] | 0
[3] | 0
[4] | 0
[5] | 0
[6] | 0
[7] | 0
[8] | 0
[9] | 0
[10] | 0
[11] | 0.43
[12] | 0.06
[13] | 0
[14] | 0
[15] | 0

O=C(NOCCO)c1ccc2cncn2c1Nc1ccc(I)cc1F [GDC-0623] (max concentration tested 2500 nM)
percent inhibition of viability [%]
Details | 0.25 nM | 2.5 nM | 25 nM | 250 nM | 2500 nM
[1] | -1.46 | -4.58 | 0.15 | 3.69 | -1.38
[16] | -3.81 | -3.05 | 2.89 | 12.4 | 10.4
[17] | 0.15 | -1.83 | -0.28 | 6.96 | -0.89
[18] | 1.53 | 2.87 | 4.11 | 20.2 | 49.3
[19] | 0.23 | -3.52 | 5.29 | 8.89 | 14.6
[20] | -9.21 | -4.95 | 0.24 | 3.46 | 15.2
[21] | -1.35 | 0.84 | 4.63 | 16.2 | 24.8
[22] | -2.63 | 1.52 | 26.2 | 53.6 | 53.1
[23] | -4.83 | -0.98 | -7.63 | -7.39 | -5.55
[24] | -7.6 | 7.27 | 7.92 | 9.81 | 15.9
[25] | -5.9 | -3.61 | 37.9 | 65.4 | 62.6
[26] | -2.15 | -3.76 | -6.69 | -7.14 | -20.9
[27] | 6.88 | -4.38 | -13.8 | -14.5 | -33.3
[28] | -5.35 | -2.96 | -2.99 | 19.2 | 1.26

Details | drug sensitivity score
[2] | 0
[3] | 0.81
[4] | 0
[5] | 4.82
[6] | 0.54
[7] | 0.57
[8] | 2.53
[9] | 13
[10] | 0.89
[11] | 0.97
[12] | 16.7
[13] | 0.89
[14] | 0
[15] | 0

C[C@@H]1CN(CC(=O)Nc2ccc3c(c2)Cc2cccc(-c4cc(=O)cc(N5CCOCC5)o4)c2S3)C[C@H](C)O1 (max concentration tested 25000 nM)
percent inhibition of viability [%]
Details | 2.5 nM | 25 nM | 250 nM | 2500 nM | 25000 nM
[1] | -9.26 | -9.66 | -11.6 | -3.45 | 56.6
[16] | -6.64 | -9 | -7.16 | 8.32 | 84.3
[17] | -6.13 | -5.84 | -0.59 | 8.43 | 96.4
[18] | -2 | -3.36 | -4.44 | 13 | 85.2
[19] | -2.96 | -5.92 | 1.66 | 7.62 | 69.8
[20] | -8.95 | -10.4 | -7.4 | 10 | 91.3
[21] | 5.88 | 0.49 | -7.91 | 18.6 | 87.2
[22] | -6.23 | -8.72 | -3.2 | 18.6 | 107
[23] | -9.5 | -5.69 | -6.07 | 2.99 | 98.3
[24] | 10.2 | 6.26 | 7.45 | 30.7 | 89
[25] | -13.9 | -22.8 | -12.4 | 24.9 | 71
[26] | -7.1 | -15.1 | -2.57 | 18.6 | 101
[27] | -10.7 | -10.4 | -8.37 | 9 | 100
[28] | -1.38 | 0.2 | 6.37 | -0.76 | 59.3

Details | drug sensitivity score
[2] | 2.76
[3] | 6.02
[4] | 6.69
[5] | 6.89
[6] | 5.1
[7] | 6.71
[8] | 7.81
[9] | 8.65
[10] | 5.86
[11] | 8.7
[12] | 7.43
[13] | 8.57
[14] | 6.99
[15] | 3.14
